One compound from PMC9788395, “Cell-Penetrating Peptide–Peptide Nucleic Acid Conjugates as a Tool for Protein Functional Elucidation in the Native Bacterium” (Molecules, 2022) can be followed below.

Structures are written as SMILES. Non-standard residues stand in square brackets, D forms with d. Residues, ends and D or L forms follow the SMILES beside them. Dab = NCC[C@H](N)C(=O)O

The series deals with Paenibacillus sp. YYML68. The format is cell-based. Conditions: not told. Here is the method:
Figure S5. Evaluation of (DabFF)3K-FAM permeation into Paenibacillus sp. YYML68. (DabFF)3Dab- […]
FAM permeation was performed at 2 µM concentration in PBS at room temperature (23℃) for 1 h.
Untreated […] strain samples were used as a negative control (NC). Green fluorescence images […]
were captured using the blue wide-excitation mirror unit (U-FBWA; Olympus). Cell integrity was […]
confirmed by bright field (BF) images. Images of (DabFF) 3Dab-FAM permeated cells and the negative […]
controls were captured at similar exposure times to allow for comparison. Scale bar is 5 µm.
Enzymes for Biocatalysis: Sources, Biocatalytic Characteristic and Bioprocesses of Marine […]
Enzymes, Trincone, A., Ed. Woodhead Publishing Limited: Cambridge, 2013; pp 4 29-464.
electrospray ionization mass spectrometry for the characterization of kappa - and iota- […]
carrageenans. Application to the hybrid iota -/nu-carrageenans. Analytical chemistry 2005, 77, […]
Cerezo, A. S.; Erra-Balsells, R.; Matulewicz, M. C., Matrix -assisted laser desorption/ionization time-of-flight (MALDI-TOF) mass spectrometry analysis of oligosaccharides and […]
oligosaccharide alditols obtained by hydrolysis of agaroses and carrageenans, two important […]
types of red seaweed polysaccharides. Carbohydrate research 2010, 345, (2), 275-83.
(1 picture or pasted object on this page, not shown here)

Take `NCC[C@H](NC(=O)[C@H](Cc1ccccc1)NC(=O)[C@H](Cc1ccccc1)NC(=O)[C@H](CCN)NC(=O)[C@H](Cc1ccccc1)NC(=O)[C@H](Cc1ccccc1)NC(=O)[C@H](CCN)NC(=O)[C@H](Cc1ccccc1)NC(=O)[C@H](Cc1ccccc1)NC(=O)[C@@H](N)CCN)C(=O)O` [(DabFF)3Dab] (H-[Dab]FF[Dab]FF[Dab]FF[Dab]-OH): the “Permeation of the membrane of Paenibacillus sp. strain YYML68” value was “could efficiently and easily permeate the membrane”.
